Laboratory results taken from patent US20040215021A1, “Stable lansoprazole containing more than 500 ppm, up to about 3,000 ppm water and more than 200 ppm, up to about 5,000 ppm alcohol” (priority 2002, published 2004).
Where two headings read alike, the source gives them in different places. Values belong to the compound of their own block, whether it stands above or below them.

Legend:
[1] = Stability of lansoprazole under different storage conditions (HPLC impurities); format: physicochemical
Excerpt: The obtained lansoprazole is stable.
(§1) Chromatographic purity method of lansoprazole is detailed in the monograph in USP Forum Vol.26(5) [September-October 2000].

[2] = cited from earlier work
[3] = Stability of stabilized vs. non-stabilized 'solvent-free' lansoprazole (HPLC impurities, color); format: physicochemical; conditions: 3 months, 40° C., 75% humidity
Excerpt: as §1

- Stability (in words) ([1]; Example 4, wet product before drying, water about 2,200 ppm, ethanol about 300 to about 500 ppm expected): behave similarly to the dry lansoprazole
SMILES: Cc1c(OCC(F)(F)F)ccnc1C[S+]([O-])c1nc2ccccc2[nH]1 (centres unmarked) [wet lansoprazole product]

- LNP-SO2 ([1]; 1 month, 2-8° C.): 0.04%
- LNPS ([1]; 1 month, 2-8° C.): 0.01%
- Total Impurities ([1]; 1 month, 2-8° C.): 0.05%
- LNP-SO2 ([1]; 1 month, 25° C., 60% humidity): 0.04%
- LNPS ([1]; 1 month, 25° C., 60% humidity): 0.01%
- Total Impurities ([1]; 1 month, 25° C., 60% humidity): 0.09%
- LNP-SO2 ([1]; 2 month, 2-8° C.): 0.04%
- LNPS ([1]; 2 month, 2-8° C.): 0.01%
- Total Impurities ([1]; 2 month, 2-8° C.): 0.05%
- LNP-SO2 ([1]; 2 month, 25° C., 60% humidity): 0.04%
- LNPS ([1]; 2 month, 25° C., 60% humidity): 0.01%
- Total Impurities ([1]; 2 month, 25° C., 60% humidity): 0.08%
- LNP-SO2 ([1]; 2 weeks, 25° C., 60% humidity): 0.04%
- LNPS ([1]; 2 weeks, 25° C., 60% humidity): <detection limit
- Total Impurities ([1]; 2 weeks, 25° C., 60% humidity): 0.04%
- LNP-SO2 ([1]; 3 month, 2-8° C.): 0.04%
- LNPS ([1]; 3 month, 2-8° C.): <detection limit
- Total Impurities ([1]; 3 month, 2-8° C.): 0.04%
- LNP-SO2 ([1]; 3 month, 25° C., 60% humidity): 0.04%
- LNPS ([1]; 3 month, 25° C., 60% humidity): <detection limit
- Total Impurities ([1]; 3 month, 25° C., 60% humidity): 0.1%
- LNP-SO2 ([1]; 6 month, 2-8° C.): 0.04%
- LNPS ([1]; 6 month, 2-8° C.): <detection limit
- Total Impurities ([1]; 6 month, 2-8° C.): 0.04%
- LNP-SO2 ([1]; 6 month, 25° C., 60% humidity): 0.04%
- LNPS ([1]; 6 month, 25° C., 60% humidity): <detection limit
- Total Impurities ([1]; 6 month, 25° C., 60% humidity): 0.12%
- LNP-SO2 ([1]; 9 month, 2-8° C.): 0.05%
- LNPS ([1]; 9 month, 2-8° C.): <detection limit
- Total Impurities ([1]; 9 month, 2-8° C.): 0.05%
- LNP-SO2 ([1]; 9 month, 25° C., 60% humidity): 0.05%
- LNPS ([1]; 9 month, 25° C., 60% humidity): 0.04%
- Total Impurities ([1]; 9 month, 25° C., 60% humidity): 0.18%
- LNPS ([1]; 12 month, 2-8° C.): <detection limit
- Total Impurities ([1]; 12 month, 2-8° C.): 0.03%
- LNP-SO2 ([1]; 12 month, 25° C., 60% humidity): 0.04%
- LNPS ([1]; 12 month, 25° C., 60% humidity): 0.07%
- Total Impurities ([1]; 12 month, 25° C., 60% humidity): 0.32%
- Stability (in words) ([1]; product of Example 2, water 2,200 ppm, alcohol <50 ppm): stable
- LNP-SO2 ([1]; time 0): 0.04%
- LNPS ([1]; time 0): <detection limit
- Total Impurities ([1]; time 0): 0.04%
SMILES: Cc1c(OCC(F)(F)F)ccnc1C[S+]([O-])c1nc2ccccc2[nH]1 (centres unmarked) [Lansoprazole, 2-[[[3-methyl-4-(2,2,2-trifluoro-ethoxy)-2-pyridinyl]methyl]sulfinyl]-1H-benzimidazole]
- Color on storage ([2]; 4 months at 40° C. and 75% room humidity): pale brown
- Color on storage ([2]; 4 months at 40° C., absence of humidity): pale yellowish brown

- Color [3]: Brownish
- LNP-SO2 [3]: 0.04%
- LNPS [3]: 0.06%
- Total Impurities [3]: 0.31%
SMILES: Cc1c(OCC(F)(F)F)ccnc1C[S+]([O-])c1nc2ccccc2[nH]1 (centres unmarked) [Lansoprazole Not Stabilized With Ammonia]

- Color [3]: White
- LNP-SO2 [3]: 0.02%
- LNPS [3]: 0.03%
- Total Impurities [3]: 0.08%
SMILES: Cc1c(OCC(F)(F)F)ccnc1C[S+]([O-])c1nc2ccccc2[nH]1 (centres unmarked) [Lansoprazole Stabilized With Ammonia]
